According to US20230407243A1, “GENETIC PLATFORM TO INVESTIGATE THE FUNCTIONS OF BACTERIAL DRUG EFFLUX PUMPS” (priority 2022, published 2023):
In brackets after ≈: the same amount, converted by molar mass. Several values for one entry are separate records, joined by “and”; a condition that tells them apart may be missing. Identical values can stand only once. Like-named read-outs stand apart in the source and are kept apart here.

Legend:
Assay type in all cases: cell-based, Escherichia coli
K-12 (empty pCA24N) = experiment: MIC of strains harboring ASKA plasmids; settings: Escherichia coli, K-12 empty pCA24N; Chlor + (25 μg/mL chloramphenicol); 0.1 mM IPTG; read-out: MIC
ΔtolC (empty pCA24N) = experiment: microbe, parasite or virus in culture; settings: Escherichia coli, ΔtolC empty pCA24N, 0.1 mM IPTG
EKO-35 (empty pCA24N) = experiment: microbe, parasite or virus in culture; settings: for MIC: EKO-35 empty pCA24N, 0.1 mM IPTG
EKO-35 wcaC (pCA24N) = experiment: MIC of strains harboring ASKA plasmids; settings: EKO-35 wcaC; Chlor + (4 μg/mL); 0.1 mM IPTG
wild-type E. coli K-12 = settings: K-12
How it was run: (§1)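 Interaction of PAβN or NMP with antibiotics is scored as FICI = CA/MICA + CB/MICB, from MICs (no growth, OD600) in MHB II checkerboard microdilution following CLSI. Solvent controls accompany every plate.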

[1] = system: EKO-35 strains producing different efflux pumps (EKO-35 araC::X); experiment: Checkerboard synergy (FICI) of PAβN or NMP with antibiotics; settings: for Effect / FICI: PAβN + antibiotic; for MICb Alone: antibiotic alone (PAβN checkerboard); for MICb Combined: antibiotic in combination with PAβN; for PABN MICa Alone: PAβN alone, one value per checkerboard
How it was run: as §1

[2] = system: EKO-35 porinated strain expressing acrB; experiment: Checkerboard synergy (FICI), porinated strain; settings: EKO-35 acrB Pore
How it was run: as §1

[3] = system: EKO-35 porinated strain expressing acrD; experiment: Checkerboard synergy (FICI), porinated strain
How it was run: as §1

[4] = system: EKO-35-Pore acrBD408A (functionally inactive AcrB variant); experiment: Checkerboard synergy (FICI), porinated strain; settings: EKO-35 acrBD408A Pore
How it was run: as §1

EKO-35-Pore = experiment: Checkerboard synergy (FICI), porinated strain
How it was run: as §1

wild-type K-12-Pore = experiment: Checkerboard synergy (FICI), porinated strain; settings: K-12 Pore
How it was run: as §1

[5] = system: EKO-35 porinated strain expressing acrF (AcrEF); experiment: Checkerboard synergy (FICI), porinated strain; settings: EKO-35 acrEF Pore; for PABN MICa Alone: PAβN alone, one value per checkerboard
How it was run: as §1

[6] = antibiotic alone (PAβN checkerboard)
[7] = antibiotic in combination with PAβN
[8] = EKO-35 acrD Pore, PAβN + antibiotic

CO[C@@H]1[C@@H](OC(N)=O)[C@@H](O)[C@H](Oc2ccc3c(O)c(NC(=O)c4ccc(O)c(CC=C(C)C)c4)c(=O)oc3c2C)OC1(C)C [novobiocin]
MIC (K-12 (empty pCA24N)): 200 µg/mL
MIC (ΔtolC (empty pCA24N); Chlor +): 1.56 µg/mL (≈ 2.55 µM)
MIC (ΔtolC (empty pCA24N); Chlor −): 3.13 µg/mL (≈ 5.11 µM)
MIC (EKO-35 (empty pCA24N); Chlor + (4 μg/mL chloramphenicol)): 3.13 µg/mL
MIC (EKO-35 (empty pCA24N); Escherichia coli, Chlor −, read-out: MIC): 3.13 µg/mL (≈ 5.11 µM)
fold difference in susceptibility between EKO-35 and ΔtolC (EKO-35 (empty pCA24N); while profiling the ASKA EKO-35 strains): 2 fold
MIC (EKO-35 wcaC (pCA24N)): 1.56 µg/mL
Effect (wild-type E. coli K-12; PAβN + antibiotic): Synergistic
FICI (wild-type E. coli K-12; PAβN + antibiotic): 0.188
MICb Alone (wild-type E. coli K-12; [6]): 128 µg/mL
MICb Combined (wild-type E. coli K-12; [7]): 8 µg/mL
Effect ([1]; EKO-35 acrB): Synergistic
FICI ([1]; EKO-35 acrB): 0.156
MICb Alone ([1]; EKO-35 acrB): 1024 µg/mL
MICb Combined ([1]; EKO-35 acrB): 32 µg/mL
Effect ([1]; EKO-35 acrD): Synergistic
FICI ([1]; EKO-35 acrD): 0.313
MICb Alone ([1]; EKO-35 acrD): 512 µg/mL
MICb Combined ([1]; EKO-35 acrD): 32 µg/mL
Effect ([2]; PAβN + antibiotic): Synergistic
FICI ([2]; PAβN + antibiotic): 0.094
MICb Alone [2, 6]: 512 µg/mL
MICb Combined [2, 7]: 16 µg/mL
Effect [3, 8]: Additive
FICI [3, 8]: 0.563
MICb Alone ([3]; EKO-35 acrD Pore, antibiotic alone (PAβN checkerboard)): 16 µg/mL
MICb Combined ([3]; EKO-35 acrD Pore, antibiotic in combination with PAβN): 1 µg/mL
interaction of PAβN in combination with the labelled antibiotic (FICI) ([3]; acrD expressed in the porinated strain): synergy was lost
Effect ([4]; PAβN + antibiotic): Additive
FICI ([4]; PAβN + antibiotic): 0.750
MICb Alone [4, 6]: 1 µg/mL
MICb Combined [4, 7]: 0.25 µg/mL
Effect (EKO-35-Pore; EKO-35 Pore, PAβN + antibiotic): Additive
FICI (EKO-35-Pore; EKO-35 Pore, PAβN + antibiotic): 0.630
MICb Alone (EKO-35-Pore; EKO-35 Pore, antibiotic alone (PAβN checkerboard)): 1 µg/mL
MICb Combined (EKO-35-Pore; EKO-35 Pore, antibiotic in combination with PAβN): 0.13 µg/mL
interaction of PAβN in combination with the labelled antibiotic (FICI) (EKO-35-Pore; porinated efflux-deficient strains): no longer synergistic
Effect (wild-type K-12-Pore; PAβN + antibiotic): Additive
FICI (wild-type K-12-Pore; PAβN + antibiotic): 0.508
MICb Alone (wild-type K-12-Pore; [6]): 16 µg/mL
MICb Combined (wild-type K-12-Pore; [7]): 8 µg/mL

phenylalanine-arginine-β-naphthylamide [PAβN]
PABN MICa Alone (wild-type E. coli K-12; PAβN alone, one value per checkerboard): 256 µg/mL
PABN MICa Combined (wild-type E. coli K-12; with Ciprofloxacin): 64 µg/mL
PABN MICa Combined (wild-type E. coli K-12; with Erythromycin): 16 µg/mL
PABN MICa Combined (wild-type E. coli K-12; with Fusidic Acid): 32 µg/mL
PABN MICa Combined (wild-type E. coli K-12; with Linezolid): 16 µg/mL
PABN MICa Combined (wild-type E. coli K-12; with Novobiocin): 32 µg/mL
PABN MICa Combined (wild-type E. coli K-12; with Oxacillin): 32 µg/mL
PABN MICa Combined ([1]; EKO35 araC::acrB, with Linezolid): 16 µg/mL
PABN MICa Combined ([1]; EKO-35 acrB, with Erythromycin): 16 µg/mL
PABN MICa Combined ([1]; EKO-35 acrB, with Fusidic Acid): 32 µg/mL
PABN MICa Combined ([1]; EKO-35 acrB, with Novobiocin): 32 µg/mL
PABN MICa Combined ([1]; EKO-35 acrB, with Oxacillin): 16 µg/mL
PABN MICa Alone ([1]; EKO-35 acrD): 64 µg/mL
PABN MICa Alone ([1]; EKO-35 acrD, listed as PABN): 128 µg/mL
PABN MICa Combined ([1]; EKO-35 acrD, with Fusidic Acid): 8 µg/mL
PABN MICa Combined ([1]; EKO-35 acrD, with Novobiocin): 16 µg/mL
PABN MICa Combined ([1]; EKO-35 acrD, with Oxacillin): 4 µg/mL
PABN MICa Alone ([1]; EKO-35 acrEF, listed as PABN): 32 µg/mL and 64 µg/mL
PABN MICa Combined ([1]; EKO-35 acrEF, with Ciprofloxacin): 16 µg/mL
PABN MICa Combined ([1]; EKO-35 acrEF, with Erythromycin): 16 µg/mL
PABN MICa Combined ([1]; EKO-35 acrEF, with Fusidic Acid): 8 µg/mL
PABN MICa Combined ([1]; EKO-35 acrEF, with Oxacillin): 16 µg/mL
PABN MICa Alone ([1]; EKO-35 mdtEF): 64 µg/mL
PABN MICa Combined ([1]; EKO-35 mdtEF, with Erythromycin): 16 µg/mL
PABN MICa Combined ([1]; EKO-35 mdtEF, with Fusidic Acid): 8 µg/mL
PABN MICa Alone ([1]; EKO-35 mexCD): 64 µg/mL
PABN MICa Combined ([1]; EKO-35 mexCD, with Ciprofloxacin): 8 µg/mL
PABN MICa Combined ([1]; EKO-35 mexCD, with Erythromycin): 8 µg/mL
PABN MICa Combined ([2]; with Erythromycin): 16 µg/mL
PABN MICa Combined ([2]; with Fusidic Acid): 32 µg/mL
PABN MICa Combined ([2]; with Linezolid): 16 µg/mL
PABN MICa Combined ([2]; with Novobiocin): 16 µg/mL
PABN MICa Combined ([2]; with Oxacillin): 16 µg/mL
PABN MICa Alone ([3]; EKO-35 acrD Pore, PAβN alone, one value per checkerboard, listed as PABN): 32 µg/mL and 64 µg/mL
PABN MICa Combined ([3]; EKO-35 acrD Pore, with Fusidic Acid): 8 µg/mL
PABN MICa Combined ([3]; EKO-35 acrD Pore, with Novobiocin): 16 µg/mL
PABN MICa Combined ([3]; EKO-35 acrD Pore, with Oxacillin): 16 µg/mL
PABN MICa Alone [5]: 64 µg/mL
PABN MICa Alone ([5]; listed as PABN): 128 µg/mL
PABN MICa Combined ([5]; with Ciprofloxacin): 16 µg/mL
PABN MICa Combined ([5]; with Erythromycin): 16 µg/mL
PABN MICa Combined ([5]; with Fusidic Acid): 8 µg/mL
PABN MICa Combined ([5]; with Oxacillin): 32 µg/mL
PABN MICa Combined ([4]; with Ciprofloxacin): 8 µg/mL
PABN MICa Combined ([4]; with Erythromycin): 16 µg/mL
PABN MICa Combined ([4]; with Fusidic Acid): 8 µg/mL
PABN MICa Combined ([4]; with Linezolid): 32 µg/mL
PABN MICa Combined ([4]; with Novobiocin): 8 µg/mL
PABN MICa Combined ([4]; with Oxacillin): 32 µg/mL
PABN MICa Alone (EKO-35-Pore; EKO-35 Pore, PAβN alone, one value per checkerboard, listed as PABN): 64 µg/mL and 32 µg/mL
PABN MICa Combined (EKO-35-Pore; EKO-35 Pore, with Ciprofloxacin): 2 µg/mL
PABN MICa Combined (EKO-35-Pore; EKO-35 Pore, with Erythromycin): 8 µg/mL
PABN MICa Combined (EKO-35-Pore; EKO-35 Pore, with Fusidic Acid): 16 µg/mL
PABN MICa Combined (EKO-35-Pore; EKO-35 Pore, with Linezolid): 32 µg/mL
PABN MICa Combined (EKO-35-Pore; EKO-35 Pore, with Novobiocin): 16 µg/mL
PABN MICa Combined (EKO-35-Pore; EKO-35 Pore, with Oxacillin): 32 µg/mL
PABN MICa Combined (wild-type K-12-Pore; with Ciprofloxacin): 256 µg/mL
PABN MICa Combined (wild-type K-12-Pore; with Erythromycin): 64 µg/mL
PABN MICa Combined (wild-type K-12-Pore; with Fusidic Acid): 32 µg/mL
PABN MICa Combined (wild-type K-12-Pore; with Linezolid): 32 µg/mL
PABN MICa Combined (wild-type K-12-Pore; with Novobiocin): 2 µg/mL
PABN MICa Combined (wild-type K-12-Pore; with Oxacillin): 64 µg/mL
